According to patent US8642799B2, “Cysteine protease inhibitors for the treatment of parasitic diseases” (Merck Canada Inc., priority 2007, dated 2014):

Target: cruzipain (Trypanosoma cruzi, UniProt P25779)
Experiment: biochemical
Settings: 50 pM cruzipain, pH 5.5, 15 minutes preincubation, 2 μM Z-Phe-Arg-AMC substrate
Description: The assay solutions were mixed and incubated for 15 minutes at room temperature prior to the addition of 2 μM of Z-Phe-Arg-AMC substrate. […] Percent of inhibition were calculated by fitting experimental values to standard mathematical model for dose response curve.

Chain of cruzipain (P25779 123-467): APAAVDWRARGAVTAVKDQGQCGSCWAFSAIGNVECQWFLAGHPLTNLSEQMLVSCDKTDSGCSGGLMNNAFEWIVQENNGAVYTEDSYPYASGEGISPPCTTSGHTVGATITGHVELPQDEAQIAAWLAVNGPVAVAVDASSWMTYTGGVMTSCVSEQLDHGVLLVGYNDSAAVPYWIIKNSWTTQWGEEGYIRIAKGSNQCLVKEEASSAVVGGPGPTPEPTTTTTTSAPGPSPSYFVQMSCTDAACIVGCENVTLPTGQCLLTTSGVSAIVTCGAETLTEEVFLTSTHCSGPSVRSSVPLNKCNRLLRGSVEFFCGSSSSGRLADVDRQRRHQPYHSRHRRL

SMILES	IC50 [nM]
CC(C)[C@H](N[C@@H](c1ccc(Br)cc1)C(F)(F)F)C(=O)N[C@H](C#N)Cc1ccccc1 [Example 40, (S)-2-[(S)-1-(4-Bromo-phenyl)-2,2,2-trifluoro-ethylamino]-N-((S)-1-cyano-2-phenyl-ethyl)-3-methyl-butyramide]	10.5
CSc1ccc(-c2ccc([C@H](N[C@@H](CC(C)(C)F)C(=O)N[C@H](C#N)Cc3ccc(C#N)cc3F)C(F)(F)F)cc2)cc1 [Example 26, (S)-4-Fluoro-4-methyl-2-[(S)-2,2,2-trifluoro-1-(4′-methylsulfanyl-biphenyl-4-yl)-ethylamino]-pentanoic acid [(S)-1-cyano-2-(4-cyano-2-fluoro-phenyl)-ethyl]-amide]	4.2
CC(C)(F)C[C@H](N[C@@H](c1ccc(-c2ccc(-c3ccc(S(C)(=O)=O)cc3)cc2)cc1)C(F)(F)F)C(=O)N[C@H](C#N)Cc1ccccc1 [Example 24, (S)-4-Fluoro-4-methyl-2-[(S)-2,2,2-trifluoro-1-(4-methanesulfonyl-[1,1′;4′,1″]terphenyl-4″-yl)-ethylamino]-pentanoic acid ((S)-benzyl-cyano-methyl)-amide]	16
CC(C)(F)C[C@H](N[C@@H](c1ccc(-c2ccc([C@@H](O)C(F)F)cc2)cc1)C(F)(F)F)C(=O)N[C@H](C#N)Cc1ccc(S(C)(=O)=O)cc1 [Example 20, (S)-2-{(S)-1-[4′-((R)-2,2-Difluoro-1-hydroxy-ethyl)-biphenyl-4-yl]-2,2,2-trifluoro-ethylamino}-4-fluoro-4-methyl-pentanoic acid [(S)-1-cyano-2-(4-methanesulfonyl-phenyl)-ethyl]-amide]	8.4
CC(C)(F)C[C@H](N[C@@H](c1ccc(-c2ccc(S(C)(=O)=O)cc2)cc1)C(F)(F)F)C(=O)NC(C#N)Cc1ccc(C(F)(F)F)cc1F (stereo partly drawn) [Example 33, (S)-4-Fluoro-4-methyl-2-[(S)-2,2,2-trifluoro-1-(4′-methanesulfonyl-biphenyl-4-yl)-ethylamino]-pentanoic acid [cyano-(2-fluoro-4-trifluoromethyl-benzyl)-methyl]-amide]	3.5
CC(C)(F)C[C@H](N[C@@H](c1ccc(-c2ccc(S(C)(=O)=O)cc2)cc1)C(F)(F)F)C(=O)N[C@H](C#N)Cc1cc[n+]([O-])cc1 [Example 75, (S)-4-Fluoro-4-methyl-2-[(S)-2,2,2-trifluoro-1-(4′-methanesulfonyl-biphenyl-4-yl)-ethylamino]-pentanoic acid [(S)-cyano-(1-oxy-pyridin-4-ylmethyl)-methyl]-amide]	120
CC(C)(F)C[C@H](N[C@@H](c1ccc(-c2ccc(S(C)(=O)=O)cc2)cc1)C(F)(F)F)C(=O)N[C@H](C#N)Cc1cccnc1 [Example 64, (S)-4-Fluoro-4-methyl-2-[(S)-2,2,2-trifluoro-1-(4′-methanesulfonyl-biphenyl-4-yl)-ethylamino]-pentanoic acid ((S)-cyano-pyridin-3-ylmethyl-methyl)-amide]	12.6
CC(C)(F)C[C@H](N[C@@H](c1ccc(-c2ccc(S(N)(=O)=O)cc2)cc1)C(F)(F)F)C(=O)N[C@H](C#N)Cc1ccccc1 [Example 31, (S)-4-Fluoro-4-methyl-2-[(S)-2,2,2-trifluoro-1-(4′-sulfamoyl-biphenyl-4-yl)-ethylamino]-pentanoic acid ((S)-1-cyano-2-phenyl-ethyl)-amide]	16
CC(C)(F)C[C@H](N[C@@H](c1ccc(-c2ccc(S(C)(=O)=O)cc2)cc1)C(F)(F)F)C(=O)N[C@H](C#N)Cc1c(F)cccc1F [Example 76, (S)-4-Fluoro-4-methyl-2-[(S)-2,2,2-trifluoro-1-(4′-methanesulfonyl-biphenyl-4-yl)-ethylamino]-pentanoic acid [(S)-cyano-(2,6-difluoro-benzyl)-methyl]-amide]	7.1

Stronger by IC50, values ahead:

IC50 [nM]	SMILES
0.6	CC(C)[C@H](N[C@@H](c1ccc(-c2ccc(S(C)(=O)=O)cc2)cc1)C(F)(F)F)C(=O)N[C@H](C#N)Cc1c(F)cc(Br)cc1F [Example 70, (S)-N-[(S)-(4-Bromo-2,6-difluoro-benzyl)-cyano-methyl]-3-methyl-2-[(S)-2,2,2-trifluoro-1-(4′-methanesulfonyl-biphenyl-4-yl)-ethylamino]-butyramide]
0.2	CC(C)C[C@H](N[C@@H](c1ccc(-c2ccc(S(C)(=O)=O)cc2)cc1)C(F)(F)F)C(=O)NC(C#N)Cc1ccc(C#N)cc1 (stereo partly drawn) [Example 8, (S)-4-Methyl-2-[(S)-2,2,2-trifIuoro-1-(4′-methanesulfonyl-biphenyl-4-yl)-ethylamino]-pentanoic acid [1-cyano-2-(4-cyano-phenyl)-ethyl]-amide]
1.9	CC(C)(F)C[C@H](N[C@@H](c1ccc(-c2ccc(C3(C(=O)NCC(N)=O)CC3)cc2)cc1)C(F)(F)F)C(=O)N[C@H](C#N)Cc1ccccc1 [Example 55, 1-[4′-((S)-1-{(S)-1-[((S)-Benzyl-cyano-methyl)-carbamoyl]-3-fluoro-3-methyl-butylamino}-2,2,2-trifluoro-ethyl)-biphenyl-4-yl]-cyclopropanecarboxylic acid carbamoylmethyl-amide]
1.3	CC(C)(F)C[C@H](N[C@@H](c1ccc(-c2ccc(S(C)(=O)=O)cc2)cc1)C(F)(F)F)C(=O)N[C@H](C#N)Cc1ccc(Cl)cc1Cl [Example 18, (S)-4-Fluoro-4-methyl-2-[(S)-2,2,2-trifluoro-1-(4′-methanesulfonyl-biphenyl-4-yl)-ethylamino]-pentanoic acid [(S)-1-cyano-2-(2,4-dichloro-phenyl)-ethyl]-amide]
0.3	CC(C)(F)C[C@H](N[C@@H](c1ccc(-c2ccc(C3(C(N)=O)CC3)cc2)cc1)C(F)(F)F)C(=O)N[C@H](C#N)Cc1ccc(C#N)cc1F [Example 38, 1-[4′-((S)-1-{(S)-1-[(S)-1-Cyano-2-(4-cyano-2-fluoro-phenyl)-ethylcarbamoyl]-3-fluoro-3-methyl-butylamino}-2,2,2-trifluoro-ethyl)-biphenyl-4-yl]-cyclopropanecarboxylic acid amide]
0.7	CC(C)[C@H](N[C@@H](c1ccc(-c2ccc(C3(C(N)=O)CC3)cc2)cc1)C(F)(F)F)C(=O)N[C@H](C#N)Cc1ccccc1 [Example 48, 1-[4′-((S)-1-{(S)-1-[((S)-Benzyl-cyano-methyl)-carbamoyl]-2-methyl-propylamino}-2,2,2-trifluoro-ethyl)-biphenyl-4-yl]-cyclopropanecarboxylic acid amide]
0.6	CC(C)C[C@H](N[C@@H](c1ccc(Br)cc1)C(F)(F)F)C(=O)N[C@H](C#N)Cc1ccc(S(C)(=O)=O)cc1 [Example 9, (S)-2-[(S)-1-(4-Bromo-phenyl)-2,2,2-trifluoro-ethylamino]-4-methyl-pentanoic acid [(S)-1-cyano-2-(4-methanesulfonyl-phenyl)-ethyl]-amide]
0.6	CC(C)(F)C[C@H](N[C@@H](c1ccc(-c2ccc(-c3ccncc3)cc2)cc1)C(F)(F)F)C(=O)N[C@H](C#N)Cc1ccc(C#N)cc1F [Example 39, (S)-4-Fluoro-4-methyl-2-[(S)-2,2,2-trifluoro-1-(4′-pyridin-4-yl-biphenyl-4-yl)-ethylamino]-pentanoic acid [(S)-1-cyano-2-(4-cyano-2-fluoro-phenyl)-ethyl]-amide]
1.6	CC(C)(F)C[C@H](N[C@@H](c1ccc(-c2ccc(S(C)(=O)=O)cc2)cc1)C(F)(F)F)C(=O)N[C@H](C#N)Cc1c(F)cc(Br)cc1F [Example 66, (S)-4-Fluoro-4-methyl-2-[(S)-2,2,2-trifluoro-1-(4′-methanesulfonyl-biphenyl-4-yl)-ethylamino]-pentanoic acid [(S)-(4-bromo-2,6-difluorobenzyl)-cyano-methyl]-amide]
0.9	CC(C)(F)C[C@H](N[C@@H](c1ccc(-c2ccc(S(C)(=O)=O)cc2Cl)cc1)C(F)(F)F)C(=O)NC(C#N)Cc1ccc(C#N)cc1F (stereo partly drawn) [Example 7, (S)-2-[(S)-1-(2′-Chloro-4′-methanesulfonyl-biphenyl-4-yl)-2,2,2-trifluoro-ethylamino]-4-fluoro-4-methyl-pentanoic acid [1-cyano-2-(4-cyano-2-fluoro-phenyl)-ethyl]-amide]
1.2	CC(C)(F)C[C@H](N[C@@H](c1ccc(-c2ccc(S(C)(=O)=O)cc2Cl)cc1)C(F)(F)F)C(=O)NC(C#N)Cc1ccc(C#N)cc1Cl (stereo partly drawn) [Example 6, (S)-2-[(S)-1-(2′-Chloro-4′-methanesulfonyl-biphenyl-4-yl)-2,2,2-trifluoro-ethylamino]-4-fluoro-4-methyl-pentanoic acid [2-(2-chloro-4-cyano-phenyl)-1-cyano-ethyl]-amide]
0.9	CC(C)(O)Cc1ccc(-c2ccc([C@H](N[C@@H](CC(C)(C)F)C(=O)N[C@H](C#N)Cc3ccc(C#N)cc3F)C(F)(F)F)cc2)cc1 [Example 42, (S)-4-Fluoro-4-methyl-2-{(S)-2,2,2-trifluoro-1-[4′-(2-hydroxy-2-methyl-propyl)-biphenyl-4-yl]-ethylamino}-pentanoic acid [(S)-1-cyano-2-(4-cyano-2-fluoro-phenyl)-ethyl]-amide]
3.1	COC(=O)CNC(=O)C1(c2ccc(-c3ccc([C@H](N[C@@H](CC(C)(C)F)C(=O)N[C@H](C#N)Cc4ccccc4)C(F)(F)F)cc3)cc2)CC1 [Example 53, ({1-[4′-((S)-1-{(S)-1-[((S)-Benzyl-cyano-methyl)-carbamoyl]-3-fluoro-3-methyl-butylamino}-2,2,2-trifluoro-ethyl)-biphenyl-4-yl]-cyclopropanecarbonyl}-amino)-acetic acid methyl ester]
0.1	CC(C)[C@H](N[C@@H](c1ccc(-c2ccc(C3(C(=O)NCCO)CC3)cc2)cc1)C(F)(F)F)C(=O)N[C@H](C#N)Cc1ccc(C#N)cc1F [Example 59, 1-{4′-[(S)-1-((S)-1-{[(S)-Cyano-(4-cyano-2-fluoro-benzyl)-methyl]-carbamoyl}-2-methyl-propylamino)-2,2,2-trifluoro-ethyl]-biphenyl-4-yl}-cyclopropanecarboxylic acid (2-hydroxy-ethyl)-amide]
